Measurements as given in patent publication US20140356863A1, “METHODS FOR DETERMINING THE SUSCEPTIBILITY OF A VIRUS TO AN ATTACHMENT INHIBITOR” (BRISTOL-MYERS SQUIBB COMPANY, priority 2011, published 2014).

Columns and labels:
HIV-1 NL4-3 = assay: susceptibility of HIV-1 strains to an attachment inhibitor (IC50, inhibition of virus replication); type: cell-based; conditions: Human immunodeficiency virus 1, NL43; HIV-1 laboratory strain NL4-3
Text: (§1) As used herein, “ICn” refers to Inhibitory Concentration. It is the concentration of drug in the patient's blood or in vitro needed to suppress the reproduction of a disease-causing virus (such as HIV) by n %. Thus, “IC50” refers to the concentration of an anti-viral agent at which virus replication is inhibited by 50% of the level observed in the absence of the drug.
(§2) Two laboratory strains of HIV-1 were used in this assay.

HIV-1 RF strain = assay: as above; type: cell-based; conditions: Human immunodeficiency virus 1; HIV-1 laboratory strain RF
Text: as §1, §2

[1] = system: HIV-1 NL4-3 binding to sCD4-Fc; assay: immunoassay: virus capture by sCD4-Fc on protein G beads, quantitated by p24 ELISA; conditions: attachment inhibitor 0.5 uM, 15 min room temperature, FIG. 2
Experimental: (§3) Two laboratory strains of HIV-1 were used in this assay, NL4-3, which is susceptible to the attachment inhibitor, the other is RF, which is insensitive to the action of the attachment inhibitor. The amount of virus present with and without attachment inhibitor (AI) is quantitated by a p24 ELISA.
(§4) Virus stock was diluted to 1×10^4 TCID50 per ml in RPMI media with 10% fetal bovine serum (FBS). The attachment inhibitor (or DMSO) was added to a final concentration of 0.5 uM and the mixture incubated for 15 min at room temperature. Eighty microliters of sCD4-Fc (a recombinant protein containing the gp120 binding domain of CD4 connected to an immunoglobulin […]) at 5Oug/ml was added and incubated for an additional 30 min, with gentle rocking. Twenty microliters of protein G SEPHAROSE® beads (binding capacity of 200 ug IgG) was added and rocked at 4° C. for an additional 60 min. Unbound virus was removed by washing the beads 4 times with excess PBS. Virus captured on the beads was lysed with 0.5% Triton X-100 and the beads removed by centrifugation. The amount of virus present in the supernatant is quantitated by a p24 ELISA, according to the manufacturer's instructions (PerkinElmer NEK-050).

[2] = system: HIV-1 RF strain binding to sCD4-Fc; assay: as above; conditions: attachment inhibitor 0.5 uM, 15 min room temperature, FIG. 2
Experimental: as §3, §4

## COc1cnc(-n2cnc(C)n2)c2[nH]cc(C(=O)C(=O)N3CCN(C(=O)c4ccccc4)CC3)c12 [attachment inhibitor, 1-(4-benzoyl-piperazin-1-yl)-2-[4-methoxy-7-(3-methyl-[1,2,4]triazol-1-yl)-1H-pyrralo[2,3-c]pyridine-3-yl]-ethane-1,2-dione]
HIV-1 NL4-3
  IC50: 2.2 ± 0.6 nM
HIV-1 RF strain
  IC50: > 2000 nM
[1]
  amount of virus captured by sCD4-Fc (p24 ELISA) with attachment inhibitor versus DMSO: much less than when DMSO is used
[2]
  amount of virus captured by sCD4-Fc (p24 ELISA) with attachment inhibitor versus DMSO: no significant difference
